From PMC11528044 (Nature Communications, 2024)

Legend:
CYP51 = details: 50 μM substrate, TbCPR, NADPH, pH 6.2, 37 °C
CYP5122A1 = details: 50 μM substrate, TbCPR, NADPH, pH 6.2, 37 °C
L. donovani CYP51 = L. donovani CYP51 (Leishmania donovani, UniProt A0A3S7WRS7); experiment: UV-Vis difference binding spectra of ligands with purified recombinant CYP51
L. donovani CYP5122A1 = biological target: T1, L. donovani CYP5122A1 (Leishmania donovani, UniProt A0A3S7X0B6); experiment: UV-Vis difference binding spectra of ligands with purified recombinant CYP5122A1
T1 sequence (A0A3S7X0B6 61-592): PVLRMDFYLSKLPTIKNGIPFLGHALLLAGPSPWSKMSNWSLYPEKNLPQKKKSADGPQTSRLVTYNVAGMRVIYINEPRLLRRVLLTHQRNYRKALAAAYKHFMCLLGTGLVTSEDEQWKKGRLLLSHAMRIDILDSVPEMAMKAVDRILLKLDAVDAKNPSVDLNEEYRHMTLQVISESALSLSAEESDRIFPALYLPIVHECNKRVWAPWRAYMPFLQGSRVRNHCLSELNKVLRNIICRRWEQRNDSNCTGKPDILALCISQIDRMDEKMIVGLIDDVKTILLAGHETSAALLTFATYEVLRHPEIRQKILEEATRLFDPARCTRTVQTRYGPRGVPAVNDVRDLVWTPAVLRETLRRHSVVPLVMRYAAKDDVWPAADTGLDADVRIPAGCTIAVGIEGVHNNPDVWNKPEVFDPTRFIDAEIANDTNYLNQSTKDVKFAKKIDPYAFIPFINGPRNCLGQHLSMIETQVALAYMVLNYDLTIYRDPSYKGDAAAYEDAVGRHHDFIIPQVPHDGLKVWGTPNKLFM

[1] = system: L. donovani LV82 promastigote cultures; experiment: Microscopic counts of LV82 promastigote cultures; type: cell-based, Leishmania donovani; details: LV82 promastigotes, cell counts daily for three days
LdCYP5122A1 [2] = biological target: T2, LdCYP5122A1 (Leishmania donovani, UniProt A0A3S7X0B6)
T2 sequence (A0A3S7X0B6 61-592): T1 sequence (A0A3S7X0B6 61-592)

LdCYP51 [3] = biological target: T3, LdCYP51 (Leishmania donovani, UniProt A0A3S7WRS7); experiment: biochemical
T3 sequence (A0A3S7WRS7 32-480): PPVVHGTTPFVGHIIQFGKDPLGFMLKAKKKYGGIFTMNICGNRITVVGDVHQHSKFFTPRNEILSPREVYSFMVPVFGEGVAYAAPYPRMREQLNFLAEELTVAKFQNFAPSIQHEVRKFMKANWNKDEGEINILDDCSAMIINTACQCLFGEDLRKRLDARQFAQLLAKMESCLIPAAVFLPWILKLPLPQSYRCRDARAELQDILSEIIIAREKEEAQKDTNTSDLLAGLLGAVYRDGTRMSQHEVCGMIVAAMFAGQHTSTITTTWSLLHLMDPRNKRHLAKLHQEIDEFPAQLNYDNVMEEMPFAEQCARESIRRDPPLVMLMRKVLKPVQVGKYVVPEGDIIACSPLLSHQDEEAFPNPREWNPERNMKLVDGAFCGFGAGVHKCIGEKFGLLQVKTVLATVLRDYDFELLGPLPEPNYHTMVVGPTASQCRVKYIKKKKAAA

LdCYP5122A1 [4] = biological target: T2, LdCYP5122A1; experiment: biochemical
[5] = system: L. donovani LV82 promastigotes; experiment: microbe, parasite or virus in culture; details: Leishmania donovani, 72 h, read-out: EC50 (L. donovani)
LdCYP51 [6] = biological target: T3, LdCYP51; details: 100 μM
[7] = system: sterol profile of LV82 promastigotes; experiment: LC-MS/MS sterol analysis of inhibitor-treated LV82 promastigotes; type: cell-based, Leishmania donovani; details: 20 μM clotrimazole vs. DMSO, 24 hr
[8] = system: L. donovani strain 1S2D promastigotes (Ld1S WT and CYP5122A1 mutants); details: promastigote growth, 48 hours
[9] = system: intracellular L. major and L. amazonensis; details: cited from earlier work

Sequence of L. donovani CYP51 (A0A3S7WRS7 32-480): as above

Row | Compound | Oxidation by reconstituted CYP51 (CYP51) | Oxidation by reconstituted CYP5122A1 (CYP5122A1) | Binding mode with CYP51 (difference binding spectrum) (L. donovani CYP51) | Binding mode with CYP5122A1 (difference binding spectrum) (L. donovani CYP5122A1) | SI (selectivity index) = IC50 against LdCYP5122A1/IC50 against LdCYP51 (LdCYP5122A1 [2]) | IC50 (LdCYP51 [3]) [nM] | IC50 (LdCYP5122A1 [4]) [nM] | EC50 [5] [nM] | further results
1 | CC(C)=CCC[C@@H](C)[C@H]1CC[C@@]2(C)C3=C(CC[C@]12C)[C@@]1(C)CC[C@H](O)C(C)(C)[C@@H]1CC3 [Lanosterol] | C14-demethylation | metabolized by this enzyme | typical type I binding | type I binding |  |  |  |  | 
2 | Clc1ccc(CCC(Cn2ccnc2)Sc2c(Cl)cccc2Cl)cc1 (stereo not shown) [Butoconazole] |  |  |  |  | 4.4 | 73 ± 8 | 320 ± 70 | 1900 ± 400 | Leishmanicidal vs. leishmanistatic effect ([1]; listed as butaconazole): leishmanistatic effect
3 | C=C1CCN([C@H](C)[C@](O)(Cn2cncn2)c2ccc(F)cc2F)CC1 [Efinaconazole] |  |  |  |  | 92 | 68 ± 2 | 6200 ± 1700 | 15000 ± 1000 | 
4 | N=C(N)c1ccc(OCCCCCOc2ccc(C(=N)N)cc2)cc1 [Pentamidine] |  |  |  |  |  |  |  | 14000 ± 1000 | Inhibition of LdCYP51 at 100 μM (LdCYP51 [6]): No inhibition at 100 μM; Inhibition of LdCYP5122A1 at 100 μM (LdCYP5122A1 [2]; 100 μM): No inhibition at 100 μM
5 | Clc1ccccc1C(c1ccccc1)(c1ccccc1)n1ccnc1 [Clotrimazole] |  |  | type II binding | type II binding |  | 68 ± 4 | 260 ± 80 |  | 4,14-Dimethylzymosterol level normalized to DMSO-treated parasites [7]: 43 ± 18; 4CH2OH-LS level normalized to DMSO-treated parasites [7]: 2.3 ± 0.5; 5-Dehydroepisterol level normalized to DMSO-treated parasites [7]: 0.20 ± 0.04; 7-Dehydrodesmosterol level normalized to DMSO-treated parasites [7]: 0^d,**; 14-Methylfecosterol level normalized to DMSO-treated parasites [7]: Accumulated^a,***; 14-Methylzymosterol level normalized to DMSO-treated parasites [7]: 2.3 ± 0.4; Cholesterol (exogenous) level normalized to DMSO-treated parasites [7]: 1.1 ± 0.2; Ergosta-5,7-dienol level normalized to DMSO-treated parasites [7]: 0.79 ± 0.26; Ergostatetraenol level normalized to DMSO-treated parasites [7]: 0 ^d,**; Ergosterol level normalized to DMSO-treated parasites [7]: 0.26 ± 0.07; FF-MAS level normalized to DMSO-treated parasites [7]: Not detected; Lanosterol level normalized to DMSO-treated parasites [7]: 2.7 ± 0.9; T-MAS level normalized to DMSO-treated parasites [7]: Not detected; Zymosterol level normalized to DMSO-treated parasites ([7]; not separated from cholesta-7,24-dienol): 0.018 ± 0.006; 4-Methylzymosterol level normalized to DMSO-treated parasites ([7]; not separated from episterol and fecosterol): 0.025 ± 0.013; Cholesta-7,24-dienol level normalized to DMSO-treated parasites ([7]; not separated from zymosterol): 0.018 ± 0.006; Sensitivity of CYP5122A1 mutants compared with Ld1S WT [8]: no significant differences; Growth inhibition of intracellular L. major and L. amazonensis [9]: strongly inhibited the growth
6 | C[C@@H](c1nc(-c2ccc(C#N)cc2)cs1)[C@](O)(Cn1cncn1)c1cc(F)ccc1F [Isavuconazole] |  |  |  |  | 60 | 43 ± 7 | 2600 ± 700 | 12000 | 
7 | CC(C)=CCC[C@@H](C)[C@H]1CC=C2C3=C(CC[C@@]21C)[C@@]1(C)CC[C@H](O)C(C)(C)[C@@H]1CC3 [FF-MAS, 14-demethyl-14-dehydrolanosterol] | no oxidation metabolites were detected | metabolized by this enzyme | did not elicit any change | type I binding |  |  |  |  | 
8 | C[C@@H]1[C@H](O)[C@@H](C)/C=C/C=C/C=C/C=C/C=C/C=C/C=C/[C@H](O[C@@H]2O[C@H](C)[C@@H](O)[C@H](N)[C@@H]2O)C[C@@H]2O[C@](O)(C[C@@H](O)C[C@@H](O)[C@H](O)CC[C@@H](O)C[C@@H](O)CC(=O)O[C@H]1C)C[C@H](O)[C@H]2C(=O)O [Amphotericin B] |  |  |  |  |  |  |  | 140 ± 10 | Leishmanicidal vs. leishmanistatic effect [1]: leishmanicidal effect; inhibition at 10 µM (LdCYP51 [3]; read-out: % inhibition of LdCYP51 at 10 μM): < 25%; inhibition at 10 µM (LdCYP5122A1 [4]; read-out: % inhibition of LdCYP5122A1 at 10 μM): < 25%
9 | Clc1ccc(C(Cn2ccnc2)OCc2c(Cl)cccc2Cl)c(Cl)c1 (stereo not shown) [Isoconazole] |  |  |  |  |  |  |  | 6200 ± 500 | 
10 | c1ccc(-c2ccc(C(c3ccccc3)n3ccnc3)cc2)cc1 (stereo not shown) [Bifonazole] |  |  |  |  | 5.7 | 57 ± 8 | 330 ± 70 | 12000 ± 1000 | 
11 | Clc1ccc(C(Cn2ccnc2)OCc2csc3c(Cl)cccc23)c(Cl)c1 (stereo not shown) [Sertaconazole] |  |  |  |  | 17 | 64 ± 7 | 1100 ± 200 | 7100 ± 500 | 
12 | Clc1ccc(COC(Cn2ccnc2)c2ccc(Cl)cc2Cl)cc1 (stereo not shown) [Econazole] |  |  |  |  |  | 46 ± 4 | 470 ± 130 |  | 
13 | Clc1ccc(COC(Cn2ccnc2)c2ccc(Cl)cc2Cl)c(Cl)c1 (stereo not shown) [Miconazole] |  |  |  |  |  | 57 ± 3 | 1100 ± 200 |  | Growth inhibition of intracellular L. major and L. amazonensis [9]: strongly inhibited the growth
14 | C[C@@H](c1nc(-c2ccc(C#N)cc2)cs1)[C@](O)(Cn1cncn1)c1ccc(F)cc1F [Ravuconazole] |  |  |  |  | 248 | 49 ± 8 | 12000 ± 4000 | 12000 ± 2000 | 
15 | CC(C)N1CCN(c2ccc(OCC3COC(Cn4cncn4)(c4ccc(Cl)cc4Cl)O3)cc2)CC1 (stereo not shown) [Terconazole] |  |  |  |  | 140 | 83 ± 9 | 12000 ± 3000 | 13000 ± 1000 | 
16 | CC(C)=CCC[C@@H](C)[C@H]1CC[C@@]2(C)C3=C(CC[C@]12C)[C@@]1(C)CC[C@H](O)[C@@H](C)[C@@H]1CC3 [4,14-DMZ, 4α,14α-Dimethylzymosterol] | C14-demethylation | metabolized by this enzyme | typical type I binding | type I binding |  |  |  |  | 
17 | CC(C)=CCC[C@@H](C)[C@H]1CC[C@H]2C3=CC=C4C[C@@H](O)CC[C@]4(C)[C@H]3CC[C@]12C [7-Dehydrodesmosterol] | oxidized by CYP51 to form hydroxylated metabolites | No oxidation metabolite formation | atypical difference binding spectrum | did not induce any appreciable change |  |  |  |  | 
18 | CC(C)=CCC[C@@H](C)[C@H]1CC[C@H]2C3=C(CC[C@]12C)[C@@]1(C)CC[C@H](O)C[C@@H]1CC3 [Zymosterol, 5α-Cholesta-8,24-dien-3β-ol] | oxidized by CYP51 to form hydroxylated metabolites | No oxidation metabolite formation | atypical difference binding spectrum | did not induce any appreciable change |  |  |  |  | 
19 | CC(C)=CCC[C@@H](C)[C@H]1CC[C@H]2C3=C(CC[C@]12C)[C@@]1(C)CC[C@H](O)C(C)(C)C1CC3 (stereo partly drawn) [T-MAS, 4,4-dimethylcholesta-8,24-dien-3β-ol] | no oxidation metabolites were detected | metabolized by this enzyme | did not elicit any change | type I binding |  |  |  |  | 
